Source: US6399083B1, “Cosmetic compositions containing chick pea extract and retinoids” (Unilever Home & Personal Care USA, division of Conopco, Inc., priority 1999, dated 2002)

System: CRABP-2
Test: CRABP-2 protein expression in fibroblasts by Western immuno-blotting and densitometric scanning
Format: cell-based, Human
Conditions: for As % of control: control as 100%
Protocol: Dried chick pea was purchased from local markets and powdered in a dry grinder. The alcoholic extract of chick pea was prepared by stirring 1 gram of the dry chick pea powder in 10 ml of ethanol for 4 to 24 hrs at room temperature. The extract was clarified by filtration and centrifugation, to obtain a 10% extract of chick pea in ethanol.
Human adult fibroblasts obtained from sun-protected inner arm of […] were used in this. Cells were grown in 1:1 DMEM/Hams F12 media containing 10% FBS, maintained at 37 C. in a 5% CO2 atmosphere under normal atmospheric oxygen tension. Third passage adult fibroblasts were grown in DMEM media with 10% FBS in 12-well plates at a seeding density of 40,000 cells/ml/well. The cells at 80% confluence were rinsed in serum free and phenol red free (PRF) DMEM media twice. Pre-treatment with chick pea extract for 4 hours was conducted and then dosed with retinoids and was incubated for 48 hours. After the incubation, the wells were washed twice with 1×PBS and the cell monolayer was harvested in 100 μI cell lysis buffer (contains 1×PBS, 1% TritonX, 0.5% sodium deoxycholate, 0.1% SDS containing protease inhibitor (10 mg/ml PMSF in isopropanol, 10 μl/ml)). The suspension was spun at 14000 rpm for 10 minutes, the supernatant collected and an aliquot of this supernatant was used for protein quantification. Protein concentration was determined using Pierce protein kit. The remainder of 100 μl supernatant (cell lysate) was denatured in a mixture of 40 μl sample buffer (NOVEX) and 0.5% Beta mercaptoethanol (BME) and by boiling the sample for 5 minutes. Equal amount of protein was then loaded onto 16% Tris-glycine gels for protein analysis by SDS page and Western Immuno-blotting for CRABP-2 protein expression.
To measure the levels of CRABP-2 in the fibroblasts prepared as described above, the cell supernatant was re-suspended in 4×sample buffer and 0.5% BME, boiled for 5 minutes and used for western blotting. Equal amounts of protein were loaded onto 16% Tris-glycine gels for CRABP-2 protein analysis by SDS page and Western Immuno-blotting. The gels were transferred to nitrocellulose blots and Western Blotting was carried out using monoclonal antibodies to CRABP-2 according to standard procedures. The CRABP-2 protein band was visualized in the Western Blots using the chemiluminescence system obtained from Santa Cruz Biotechnology (Santa Cruz, Calif.). The bands in the film were quantitated by densitometric scanning, the data from triplicate samples were calculated as % of control and expressed in the following tables as % increase over control (with control as 100%) +/−SD of triplicates.

[1] = Example 1: 100 nM retinoids and 0.1 μl of a 10% chick pea extract, 4 h extract pre-treatment, 48 h incubation, +/- SD of triplicates
[2] = Example 1: 100 nM retinoids and 0.1 μl of a 10% chick pea extract, +/- SD of triplicates
[3] = Example 1: 100 nM retinoids and 0.1 μl of a 10% chick pea extract
[4] = Example 3: 500 nM retinoids and 0.1 μl of a 10% chick pea extract, +/- SD of triplicates
[5] = Example 3: 500 nM retinoids and 0.1 μl of a 10% chick pea extract
[6] = second table headed Example 3: 500 nM retinoids and 0.1 μl of a 10% chick pea extract, +/- SD of triplicates
[7] = second table headed Example 3: 500 nM retinoids and 0.1 μl of a 10% chick pea extract

Compound	CRABP-2 levels [1]	CRABP-2 levels [2]	As % of control [3]	As % of control [2]	CRABP-2 levels [4]	As % of control [5]	CRABP-2 levels [6]	As % of control [7]
CC1=C(/C=C/C(C)=C/C=C/C(C)=C/CO)C(C)(C)CCC1 [Retinol]	2.02 +/− 0.23	2.02 +/− 0.23	289 +/− 34 % of control	289 +/− 34 % of control	0.72 +/− 0.04	102 +/− 6 % of control	0.72 +/− 0.04	102 +/− 6 % of control
CCCCCCCCCCCCCCCC(=O)OC/C=C(C)/C=C/C=C(C)/C=C/C1=C(C)CCCC1(C)C [Retinyl Palmitate, retinyl palmitate]	1.84 +/− 0.16	1.84 +/− 0.16	262 +/− 24 % of control	262 +/− 24 % of control	0.94 +/− 0.31	135 +/− 45 % of control	0.94 +/− 0.31	135 +/− 45 % of control
CC(=O)OC/C=C(C)/C=C/C=C(C)/C=C/C1=C(C)CCCC1(C)C [Retinyl acetate, retinyl acetate]	1.44 +/− 0.26	1.44 +/− 0.26	206 +/− 37 % of control	206 +/− 37 % of control	1.65 +/− 0.49	235 +/− 70 % of control	1.65 +/− 0.49	235 +/− 70 % of control
CCCCC/C=C\C/C=C\CCCCCCCC(=O)OC/C=C(C)/C=C/C=C(C)/C=C/C1=C(C)CCCC1(C)C [Retinyl linoleate, retinyl linoleate]	2.06 +/− 0.09	2.06 +/− 0.09	294 +/− 12 % of control	294 +/− 12 % of control	0.81 +/− 0.16	115 +/− 23 % of control	0.81 +/− 0.16	115 +/− 23 % of control
